According to ChEMBL document CHEMBL1201862, “PubChem BioAssay data set” (2004):
The source made the active and inactive calls.

Experiments:
[1] = blockers of HIV-1 envelope-mediated cell-cell fusion – cherry-pick, dose response (AID 652057); format: functional, cell-based
[2] = viability loss in CEM21 cells – cell-based, CellTiter-Glo luminescence, cherry-picked, cytotoxicity control for viral fusion inhibitor project, dose response (AID 652042); format: functional;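 note: potency for signal decrease meaning cytotoxicity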
[3] = intracellular Trypanosoma cruzi inhibitors in host cells – cell-based, plate reader, cherry-pick samples, set 3, dose response (AID 651818); format: functional;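 note: compounds incubated with infected cells for about four days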
[4] = blockers of HIV-1 ZM109 envelope-driven cell-cell fusion – HeLa effector, CEM target cells, luciferase, cherry-pick, dose response (AID 652058); format: functional, cell-based;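 note: luciferase signal from HIV-1 Env mediated cell-cell fusion of effector and target cells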
[5] = off-target signal loss in HeLa-CEM21 co-culture – HeLa F-luc CTL cells, cherry-picked, counter-screen for HIV-1 Env fusion inhibitor project, dose response (AID 652040); format: functional, cell-based;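 note: potency for signal decrease marking cytotoxic or nonspecific inhibition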
[6] = HIV-1 AD8 envelope cell-cell fusion blockers – cherry-pick, dose response (AID 652062); format: functional, cell-based;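 note: luciferase signal from cell-cell fusion driven by HIV-1 clade B AD8 Env; potency is for inhibitors of fusion seen as a drop in luminescence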
[7] = molecular target: Mu-type opioid receptor (Homo sapiens, UniProt P35372); format: functional, cell-based;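 note: U2OS cells with beta-arrestin recruitment to OPRM1 by beta-gal complementation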
Mu-type opioid receptor, sequence (P35372 whole entry): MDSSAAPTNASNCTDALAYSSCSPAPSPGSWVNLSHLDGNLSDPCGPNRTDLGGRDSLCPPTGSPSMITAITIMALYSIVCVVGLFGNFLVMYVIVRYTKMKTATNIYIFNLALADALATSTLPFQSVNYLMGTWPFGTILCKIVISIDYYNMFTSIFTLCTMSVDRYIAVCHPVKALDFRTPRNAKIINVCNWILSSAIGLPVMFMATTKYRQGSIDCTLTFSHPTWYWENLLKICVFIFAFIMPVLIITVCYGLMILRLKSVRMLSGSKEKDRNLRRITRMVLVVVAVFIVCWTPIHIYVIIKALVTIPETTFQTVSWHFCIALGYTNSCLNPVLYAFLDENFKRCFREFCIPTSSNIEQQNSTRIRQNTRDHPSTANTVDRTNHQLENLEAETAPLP

[8] = molecular target: 5-hydroxytryptamine receptor 2A (Mus musculus, UniProt P35363); format: functional, cell-based;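 note: CHO-K1 cells with tagged receptor and beta-arrestin; agonist potency measured as compound-induced activation of the receptor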
5-hydroxytryptamine receptor 2A, sequence (P35363 whole entry): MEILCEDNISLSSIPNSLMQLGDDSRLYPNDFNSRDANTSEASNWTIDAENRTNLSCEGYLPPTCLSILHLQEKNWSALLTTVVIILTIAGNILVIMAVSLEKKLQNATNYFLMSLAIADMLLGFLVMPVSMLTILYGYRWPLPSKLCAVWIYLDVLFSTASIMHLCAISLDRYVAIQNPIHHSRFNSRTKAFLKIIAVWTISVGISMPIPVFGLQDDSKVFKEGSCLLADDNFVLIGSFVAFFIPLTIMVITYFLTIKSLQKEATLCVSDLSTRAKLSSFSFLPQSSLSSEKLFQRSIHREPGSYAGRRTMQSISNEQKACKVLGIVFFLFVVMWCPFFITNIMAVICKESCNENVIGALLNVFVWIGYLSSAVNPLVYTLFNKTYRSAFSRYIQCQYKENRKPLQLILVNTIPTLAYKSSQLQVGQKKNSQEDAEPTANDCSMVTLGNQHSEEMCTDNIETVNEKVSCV

[9] = molecular target: T1, Probable nicotinate-nucleotide adenylyltransferase (Staphylococcus aureus (strain N315), UniProt P65502); format: functional, Staphylococcus aureus subsp. aureus N315;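 for IC50 Mean: confirmatory dose-response retesting of NadD inhibitor hits first found in an ultra-high-throughput screen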
T1 sequence (P65502 whole entry): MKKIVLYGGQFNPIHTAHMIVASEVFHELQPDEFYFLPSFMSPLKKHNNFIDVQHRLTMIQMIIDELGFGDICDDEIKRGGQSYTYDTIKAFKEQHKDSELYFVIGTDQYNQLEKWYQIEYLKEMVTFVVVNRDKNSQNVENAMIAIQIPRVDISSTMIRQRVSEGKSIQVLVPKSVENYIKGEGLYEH

[10] = molecular target: T1, Probable nicotinate-nucleotide adenylyltransferase; format: functional, Staphylococcus aureus subsp. aureus N315; details: read-out: IC50_Mean
[11] = molecular target: T2, Corticotropin-releasing factor receptor 2/Corticotropin-releasing factor-binding protein (Homo sapiens, UniProt P24387+Q13324); experiment: Dose Response confirmation of uHTS hits for small molecule antagonists of the CRF-binding protein and CRF-R2 receptor complex.; format: functional; details: read-out: IC50_Mean
T2 sequence (Q13324 whole entry): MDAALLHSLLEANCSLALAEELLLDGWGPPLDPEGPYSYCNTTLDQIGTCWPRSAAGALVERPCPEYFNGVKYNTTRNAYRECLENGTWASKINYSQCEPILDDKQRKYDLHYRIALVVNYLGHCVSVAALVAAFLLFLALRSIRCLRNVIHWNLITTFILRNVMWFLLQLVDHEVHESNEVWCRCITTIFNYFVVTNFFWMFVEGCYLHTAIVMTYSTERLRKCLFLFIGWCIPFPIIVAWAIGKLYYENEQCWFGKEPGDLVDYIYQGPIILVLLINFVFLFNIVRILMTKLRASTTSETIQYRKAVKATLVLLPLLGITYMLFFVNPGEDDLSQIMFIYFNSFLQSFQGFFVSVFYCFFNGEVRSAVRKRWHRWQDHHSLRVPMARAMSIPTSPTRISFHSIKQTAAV
T2 sequence (P24387 whole entry): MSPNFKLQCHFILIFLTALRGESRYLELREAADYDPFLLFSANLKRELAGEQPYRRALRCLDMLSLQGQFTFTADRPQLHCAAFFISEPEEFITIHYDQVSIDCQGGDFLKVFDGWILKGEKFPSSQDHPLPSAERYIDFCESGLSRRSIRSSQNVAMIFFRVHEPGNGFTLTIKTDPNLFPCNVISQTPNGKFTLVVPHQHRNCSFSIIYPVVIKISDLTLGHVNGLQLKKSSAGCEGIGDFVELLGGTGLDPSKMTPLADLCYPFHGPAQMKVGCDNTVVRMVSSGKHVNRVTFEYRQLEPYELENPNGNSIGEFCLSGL

[12] = molecular target: T2, Corticotropin-releasing factor receptor 2/Corticotropin-releasing factor-binding protein; experiment: activators of CRF receptor 2 with binding protein – uHTS hits, confirmation (AID 602473); format: functional; details: read-out: EC50_Mean
[13] = alpha-synuclein stem-loop luciferase translation blockers – H4 neuroglioma cells, luminescence, confirmation (AID 1988); format: functional, cell-based
[14] = Luminescence Cell-Based Dose Response HTS to Identify Inhibitors of 5'UTR Stem-Loop Driven Prion Protein mRNA Translation in H4 Neuroglioblastoma Cells. [Related pubchem assays: 1827 (Project Summary), 1813 (Primary HTS)]; format: functional
[15] = luciferase reporter signal suppression in cells – H4 neuroglioma cells, luminescence, dose response (AID 1990); format: functional, cell-based
[16] = blockers of CRF-binding protein–CRF-R2 complex – cell-based, uHTS hits, 384-well, dose response (AID 651639); format: functional, Homo sapiens; details: read-out: IC50_Mean
[17] = molecular target: T3, Leucine aminopeptidase (Plasmodium falciparum 3D7, UniProt Q8IL11); experiment: P. falciparum M17LAP inhibitors, primary screen, biochemical, fluorogenic H-Leu-NHMec substrate, 1536-well (AID 1619); format: functional
T3 sequence (Q8IL11 whole entry): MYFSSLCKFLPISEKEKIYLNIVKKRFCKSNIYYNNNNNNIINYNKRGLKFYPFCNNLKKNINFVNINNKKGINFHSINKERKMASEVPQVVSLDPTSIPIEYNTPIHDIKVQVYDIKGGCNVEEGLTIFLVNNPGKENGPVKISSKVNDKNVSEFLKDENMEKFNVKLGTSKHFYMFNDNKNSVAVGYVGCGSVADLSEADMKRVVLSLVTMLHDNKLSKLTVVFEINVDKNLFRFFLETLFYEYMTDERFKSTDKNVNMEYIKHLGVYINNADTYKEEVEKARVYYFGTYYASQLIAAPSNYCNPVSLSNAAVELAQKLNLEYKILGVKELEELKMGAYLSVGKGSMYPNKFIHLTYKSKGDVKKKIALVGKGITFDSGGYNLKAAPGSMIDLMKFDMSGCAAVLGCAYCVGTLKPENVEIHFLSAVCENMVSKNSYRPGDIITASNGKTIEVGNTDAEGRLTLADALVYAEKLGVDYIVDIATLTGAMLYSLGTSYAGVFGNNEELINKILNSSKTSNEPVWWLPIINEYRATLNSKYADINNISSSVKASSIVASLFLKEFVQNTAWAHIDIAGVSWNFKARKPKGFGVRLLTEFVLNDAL

[18] = molecular target: T4, Replicative DNA helicase DnaB (Mycobacterium tuberculosis, UniProt P9WMR3); experiment: DnaB intein splicing inhibitors, dose response, biochemical, cell-free fluorescence (AID 449749); format: functional
T4 sequence (P9WMR3 whole entry): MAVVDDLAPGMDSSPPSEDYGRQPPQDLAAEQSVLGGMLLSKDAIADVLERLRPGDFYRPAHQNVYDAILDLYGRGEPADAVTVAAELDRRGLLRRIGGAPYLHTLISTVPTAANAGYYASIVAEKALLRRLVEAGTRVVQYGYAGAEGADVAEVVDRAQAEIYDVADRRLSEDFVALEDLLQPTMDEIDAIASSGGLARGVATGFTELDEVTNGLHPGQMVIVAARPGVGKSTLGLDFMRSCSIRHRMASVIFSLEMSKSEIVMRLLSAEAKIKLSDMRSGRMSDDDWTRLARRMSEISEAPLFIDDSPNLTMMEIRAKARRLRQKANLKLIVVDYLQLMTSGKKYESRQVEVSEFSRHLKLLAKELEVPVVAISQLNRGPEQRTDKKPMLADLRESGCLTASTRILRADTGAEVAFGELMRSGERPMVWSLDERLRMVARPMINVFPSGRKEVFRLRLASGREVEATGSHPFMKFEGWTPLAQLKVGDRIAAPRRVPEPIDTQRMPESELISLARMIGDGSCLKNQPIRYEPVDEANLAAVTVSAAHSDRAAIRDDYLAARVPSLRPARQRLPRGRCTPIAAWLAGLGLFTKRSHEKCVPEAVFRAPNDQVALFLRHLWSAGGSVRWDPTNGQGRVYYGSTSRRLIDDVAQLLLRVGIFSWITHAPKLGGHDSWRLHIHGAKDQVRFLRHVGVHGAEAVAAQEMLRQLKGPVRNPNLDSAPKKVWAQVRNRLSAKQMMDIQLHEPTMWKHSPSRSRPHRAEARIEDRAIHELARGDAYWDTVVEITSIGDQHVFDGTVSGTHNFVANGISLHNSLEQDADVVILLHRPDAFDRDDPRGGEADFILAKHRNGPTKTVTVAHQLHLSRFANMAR

[19] = molecular target: T5, Protein RecA (Mycobacterium tuberculosis, UniProt P9WHJ3); experiment: Fluorescence Cell-Free Homogeneous Dose Retest to Identify Inhibitors of RecA-Intein Splicing Activity. [Related pubchem assays (depositor defined):AID2097, AID2223, AID489010, AID492950]; format: functional
T5 sequence (P9WHJ3 whole entry): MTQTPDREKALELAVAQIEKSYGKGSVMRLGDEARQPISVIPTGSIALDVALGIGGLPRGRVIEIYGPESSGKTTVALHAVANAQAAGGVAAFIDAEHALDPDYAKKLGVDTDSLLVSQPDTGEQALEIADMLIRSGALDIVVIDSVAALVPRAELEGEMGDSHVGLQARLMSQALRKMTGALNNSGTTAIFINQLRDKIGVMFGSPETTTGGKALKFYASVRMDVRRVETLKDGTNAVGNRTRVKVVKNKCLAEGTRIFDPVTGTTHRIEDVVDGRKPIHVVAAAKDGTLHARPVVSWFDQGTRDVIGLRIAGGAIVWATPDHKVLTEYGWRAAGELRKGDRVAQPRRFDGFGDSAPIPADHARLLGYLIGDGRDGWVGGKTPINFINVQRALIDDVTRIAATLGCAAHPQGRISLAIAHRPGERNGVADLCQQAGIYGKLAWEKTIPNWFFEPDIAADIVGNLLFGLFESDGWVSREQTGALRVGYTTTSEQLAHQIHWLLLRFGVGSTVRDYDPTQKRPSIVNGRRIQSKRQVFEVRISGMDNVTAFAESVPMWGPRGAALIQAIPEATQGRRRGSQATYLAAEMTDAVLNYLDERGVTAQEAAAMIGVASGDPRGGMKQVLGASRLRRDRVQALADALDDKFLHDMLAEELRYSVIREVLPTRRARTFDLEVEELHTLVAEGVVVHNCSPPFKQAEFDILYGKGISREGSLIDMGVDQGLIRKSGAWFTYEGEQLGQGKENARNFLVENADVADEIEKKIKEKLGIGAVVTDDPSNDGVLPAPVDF

Q: With C[C@@H]1CN([C@@H](C)CO)C(=O)c2cccc(NS(=O)(=O)c3ccc(F)cc3)c2O[C@@H]1CN(C)Cc1ccc(-c2ccccc2)cc1 as the molecule, how does the AC50 [1] read?
A: 22.4 µM (active)

Q: What about the AC50 [2] of the same molecule?
A: 48.1 µM (active)

Q: And the AC50 [3]?
A: 3.81 µM (active)

Q: What about the AC50 [4] of the same molecule?
A: 26.5 µM (active)

Q: For COC(=O)[C@@]12C[C@@H](CC(=O)NCc3cccc(C(F)(F)F)c3)C(=O)N(Cc3ccco3)C1=CCC(C)(C)C2, which AC50 [1] is on record?
A: 4.26 µM (active)

Q: What about the AC50 [2] of the same molecule?
A: 50 µM (active)

Q: And the AC50 [5]?
A: 8.92 µM (active)

Q: What about the AC50 [6] of the same molecule?
A: 20.9 µM (active)

Q: What about the AC50 [4] of the same molecule?
A: 8.24 µM (active)

Q: Which EC50 [7] does the source give for CN(C)S(=O)(=O)c1ccc(Cl)c(NC(=O)CN2CCc3ccccc3C2)c1 here?
A: 92.5 µM (inactive)

Q: What about the EC50 [8] of the same molecule?
A: 1.75 µM (active)

Q: Which results are given for N#C/C(=C/c1cn(-c2ccccc2)nc1-c1cccc(S(=O)(=O)N2CCCC2)c1)C(=O)NCc1ccco1?
A: IC50 [9]: 14.4 µM (active); IC50 [10]: 50.1 µM (active)

Q: For COC(=O)c1ccc(C(=O)NC2CCCc3c2cnn3-c2ccc(C)c(C)c2)cc1 (configuration not stated), which AC50 [2] is on record?
A: 19.4 µM (active)

Q: What about the IC50 [11] of the same molecule?
A: > 47.1 µM (inactive)

Q: And the EC50 [12]?
A: > 53 µM (inactive)

Q: What about the EC50 [13] of the same molecule?
A: 0.997 µM (active)

Q: And the EC50 [14]?
A: > 120 µM (not active)

Q: What about the EC50 [15] of the same molecule?
A: 8.89 µM (inconclusive)

Q: What about the AC50 [6] of the same molecule?
A: 18.9 µM (active)

Q: Which EC50 [7] does the source give for O=S(=O)(c1ccc(OCC(O)CN2CCN(c3ccccc3)CC2)cc1)N1CCOCC1 (configuration not stated) here?
A: 92.4 µM (inactive)

Q: What about the EC50 [8] of the same molecule?
A: 0.481 µM (active)

Q: With O=C(COc1ccc2ccccc2c1)Nc1cccc(C(=O)Nc2ccccc2C(=O)O)c1 as the molecule, how does the IC50 [11] read?
A: 2.55 µM (active)

Q: What about the EC50 [12] of the same molecule?
A: > 53 µM (inactive)

Q: And the IC50 [16]?
A: 7.44 µM (active)

Q: What about the IC50 [17] of the same molecule?
A: 8.71 µM (active)

Q: Which EC50 [7] does the source give for O=C(NCCN1CCN(c2ccccc2F)CC1)C1CCCN(S(=O)(=O)c2c[nH]cn2)C1 (configuration not stated) here?
A: 92.5 µM (inactive)

Q: What about the EC50 [8] of the same molecule?
A: 0.895 µM (active)

Q: What does the source list for O=C(Cc1cc(O)[nH]n1)N/N=C/C=C/c1ccccc1?
A: IC50 [9]: 7.45 µM (active); IC50 [10]: 23.5 µM (active); AC50 [18]: 3.17 µM (active); EC50 [19]: 2.76 µM (active)
